From US20100255099A1, “CLAVULANATE FORMULATION FOR NEUROPROTECTION AND TREATMENT OF NEURODEGENERATIVE DISORDERS” (REXAHN PHARMACEUTICALS, INC., priority 2007, published 2010)
“Also recorded” adds a separate entry of the source. Read-outs that look alike come from different tables or passages of the source.

Tests used:
[1] = administered i.p. at less than 1 μg/kg; cited from earlier work
[2] = rats, i.p. dose of 1 μg/kg; cited from earlier work
[3] = doses ranging from 10 ng to 10 μg/kg (i.p.); cited from earlier work
Kainate animal model = test: Kainate animal model: seizure and survival; format: in vivo, Sprague Dawley rats
Method: (§1) As a neuroprotectant, clavulanate was tested in the Kainate animal model. Thirty male Sprague Dawley rats weighing 300-350 grams were separated into three groups. One hour prior to kainate treatment, seven animals are treated with clavulanate at an IP dose of 10 μg/kg while the remaining animals were given saline vehicle. Kainate was given IP at a dose of 20 mg/kg to the seven clavulanate treated animals and 13 saline vehicle treated animals. […] Sixty minutes post kainate treatment the animals were given another IP injection (10 μg/kg) of clavulanate or saline vehicle. Animals that survived kainate treatment were sacrificed seven days later and their brains examined for histological changes in the hippocampus. Ten untreated control animals of the same weight and age as the experimental animals were sacrificed and their hippocampal morphology used as a standard for comparison.

[4] = Stability of clavulanate during moisture removal after wet granulation; format: physicochemical
Method: Potassium clavulanate is an exceptionally difficult material to formulate, being extremely moisture and heat sensitive. Degradation readily occurs in the presence of water and aqueous media. Several methods were tested to find a suitable condition for removing moisture after wet granulation that keeps the active ingredient clavulanate intact. The material in sample C was prepared by wet granulation and spheronized. The moisture containing spheronized formulation was transferred to trays and subjected to different storage conditions for the removal of moisture.
Lyophilization retained 97% of the active ingredient after 21 hrs of the freeze drying process.

[5] = test system: TH-positive neurons in the substantia nigra pars compacta (SNpc); test: Tyrosine hydroxylase immunohistochemistry in MPTP model; format: in vivo, C57BL/6 mice; conditions: for TH-positive (TH-IR) neurons within the SNpc: clavulanate treated groups (ip and ga) compared to MPTP-saline group
Method: The neuroprotectant effects of clavulanate was tested in an MPTP (1-methyl-4-phenyl-1,2,3,6-tetrahydropyridine) induced Parkinson's disease animal model. Eight week old male C57BL/6 mice were separated into six groups of ten. Three times (one time per day) prior to MPTP treatment, ten animals were treated with clavulanate at a particular dose and route of administration (Groups 2-5) while the remaining animals (groups 1 and 6) were given saline vehicle. (See Table 13.) MPTP was given four times intraperitoneally at a dose of 20 mg/kg (total of 80 mg/kg). Two times (one time per day) post MPTP treatment, animals were given another administration of clavulanate or saline vehicle. Animals were tested for changes in behavior. Animals that survived MPTP treatment were sacrificed 7 days later and their brains examined for histological changes in the substantia nigra pars compacta (SNpc). Ten untreated control animals of the same weight and age as the experimental animals were sacrificed and their hippocampal morphology used as a standard for comparison.
(§2) On completion of the experiment, animals were anesthetized by IP injection of 10 mg/kg pentobarbital sodium, then perfused transcardially with 10 ml of PBS at pH 7.4, follow by 50 ml of 4% paraformaldehyde in PBS over a 5 min period. The brains were removed from the skull and post-fixed by immersion in the same fixative solution for 4 h, then transferred to 30% sucrose in PBS. After equilibration in the sucrose solution, coronal sections were cut using the cryocut at a thickness of 40 μm into storing solution and stored at 4° C. prior to staining.
Immunohistochemistry was carried out on free floating sections. All stains were carried out on a 1 in 5 series of sections. All sections were stained simultaneously using the same solutions of antibodies and ensuring that incubation times and washes were the same for each brain. […]
Neurons were counted using the optical fractionator, an unbiased method for cell counting that is not affected by either the volume of reference or the size of the counted elements (neurons). […]

[6] = test system: cresyl violet positive neurons in the hippocampal CA3 region; test: Kainate animal model: cresyl violet staining of hippocampus; format: in vivo, Sprague Dawley rats
Method: as §1
as §2, with “with 100” for “with 10”, “by 250” for “by 50”, “staining. All stains are carried out on a 1 in 5 series of sections. […]” for “staining.”
To evaluate the effects of clavulanate against kainate induced neuronal damage, the measurement of neuronal number was performed using an image analyzing system equipped with a computer-based CCD camera (Multiscan, Fullerton, Calif.). The number of cresyl violet positive neurons was counted in a 1 mm diameter of hippocampus in five sections per animal. […] Data are expressed as the mean±SEM. The data were evaluated by a one-way ANOVA SPSS program and the means assessed using Duncan's multiple-range test. […]

[7] = Pharmacokinetic study in beagle dogs; format: in vivo; conditions: dog, plasma; for Vd: iv, 4.2 mg
Method: The amount of clavulanate in the plasma of beagle dogs was measured by LC/MS/MS method. The chromatographic separation of the analytes was performed on a reverse-phase PLRP-S polymeric column. The retention time of potassium clavulanate and tazobactam (reference compound) were 8.51 and 8.54 min, respectively. The overall chromatographic run time was 25 min. The M/S analysis was performed on an Applied Biosystems' API 2000 triple-quardrupole mass spectrometer by multiple reaction monitoring in negative electrospray ionization mode. The mass spectral data were analyzed by Analyst 1.4.1 (Applied Biosystems). The pharmacokinetic analysis was conducted by using PK Solutions 2.0 (Summit Research Services).
Three male Beagle dogs were used throughout the study in a cross-over design with washout period between treatments. […] The animals were fasted overnight before the administration of the test substance and fed 4 hr post-dosing. During all the treatments, blood samples (1.5 ml) were withdrawn from the cephalic vein by venipuncture into heparinized tubes at 0, 5, 15, 30 min, 1, 1.5, 2, 2.5, 3, 4, 6, 9 and 12 hr after dosing. Plasma was obtained via centrifugation at 3,000 rpm for 10 min and analyzed by an LC-MS/MS system.
Three male beagle dogs were used throughout the study in a cross-over design with washout period between treatments. The dogs were given the test substances as aqueous solution via intravenous routes with no shorter than 24 hr washout period between dosing. The animals were fasted overnight before the administration of the test substance and fed 4 hr post-dosing. During all the treatments, blood samples (1.5 ml) were withdrawn from the cephalic vein by venipuncture into heparinized tubes at 0, 5, 15, 30 min, 1, 1.5, 2, 2.5, 3, 4, 6, 9 and 12 hr after dosing. Plasma was obtained via centrifugation at 3,000 rpm for 10 min and analyzed by an LC-MS/MS system.
Four male beagle dogs were used throughout the study in a cross-over design with washout period between treatments. The dogs were given the test substances as ER tablet of Example 3C via oral routes with no shorter than 24 hr washout period between dosing. The animals were fasted overnight before the administration of the test substance and fed 4 hr post-dosing. During all the treatments, blood samples (1.5 ml) were withdrawn from the cephalic vein by venipuncture into heparinized tubes at 1, 2, 3, 4, 5, 6, 7, 8, 9, 10, 11 and 12 hr after dosing. Plasma was obtained via centrifugation at 3,000 rpm for 10 min and analyzed by an LC-MS/MS system.

[8] = Moisture sorption of potassium clavulanate powder at different relative humidity; format: physicochemical; conditions: for Moisture Content (%) (g H2O/g dry solid) / Moisture Content (%) (g H2O/g wet solid): 96 hr
Method: Potassium clavulanate in its solid form is both hygroscopic and unstable in the presence of water vapor. A stability study of clavulanate was conducted with monitoring by chromatographic methods. The static or equilibrium approach was approached by storing samples in chambers at different relative humidity in an attempt to generate a sorption isotherm. The sorption isotherm represents the quantitative relationship between the equilibrium moisture content and relative humidity (RH) in the atmosphere.

[9] = compared to controls given saline only
[10] = IV aqueous solution, dose 4.2 mg, male beagle dogs

SMILES: O=C(O)[C@H]1/C(=C/CO)O[C@@H]2CC(=O)N21 [clavulanic acid]
- anxiolytic activity [1]: anxiolytic activity
- neuroprotectant activity [2]: potent neuroprotectant activity
- CNS activity and behavior [3]: alter CNS activity and behavior

SMILES: O=C(O)[C@H]1/C(=C/CO)O[C@@H]2CC(=O)N21 [clavulanate]
- onset to seizure (Kainate animal model; [9]): longer onset to seizure
- seizure activity (Kainate animal model; [9]): mild seizure activity
- Survival rate (%) (Kainate animal model; kainate 20 mg/kg IP, clavulanate 10 μg/kg IP 1 hr before and 60 min after kainate): 100%
- Seizure rate (Kainate animal model; seizure rating scale (Sperk et al., 1983), 60-120 min after kainate treatment): 0-1
- fatality (Kainate animal model; within 24 hrs of kainate treatment): no fatality
- Clavulanate (%) ([4]; Freeze dry: sub-zero, 21 hr): 97%
- degradation ([4]; drying in a fluid bed system, 1.5 hr): 13%
- TH-positive (TH-IR) neurons within the SNpc [5]: significantly protected; also recorded: preservation
- TH-positive (TH-IR) neurons within the SNpc ([5]; listed as Clavulanate): well preserved
- protection of TH-positive SNpc neurons, gavage versus ip ([5]; following gavage treatment): greater protection
- pyramidal neurons positive to cresyl violet ([6]; CA3 stratum pyramidale, 7 days after kainate, compared to the normal group): 88.7%
- morphology of neurons in CA3 ([6]; compared to animals treated with kainate-saline): normal morphology
- neuroprotective effect on kainate induced hippocampal cell death (CA3 region) ([6]; kainate treated rats): strong neuroprotective effect; also recorded: significant neuroprotective effect

SMILES: O=C(O)[C@H]1/C(=C/CO)O[C@@H]2CC(=O)N21 [potassium clavulanate]
- degradation ([4]; storage at 30° C. for 69 hr (storage 1)): up to 45%
- degradation ([4]; storage at 45° C. for 75 hr (storage 2)): ≤ 60%
- AUC(0-t) [7, 10]: 684 ng·h/mL
- MRT inf [7, 10]: 39 min
- clearance [7, 10]: 96.7 mL/min
- bioavailability ([7]; IV aqueous solution, dose 4.2 mg, male beagle dogs, read-out: F (bioavailability)): 100%
- half-life ([7]; IV aqueous solution, dose 4.2 mg, male beagle dogs, read-out: t1/2 (converted)): 31.2 min
- Vd ([7]; male, beagle, IV aqueous solution, dose 4.2 mg, male beagle dogs, read-out: Vd): 4.4 L
- Vd ([7]; male, beagle, IV aqueous solution, dose 4.2 mg, male beagle dogs, read-out: Vss): 3.8 L
- bioavailability ([7]; male, beagle, po, given orally, fasted animals, read-out: average bioavailability): 30 to 41%
- half-life ([7]; male, beagle dogs, read-out: apparent terminal half-life (converted)): 30 min
- humidity above which deliquescence would eventually occur [8]: above 40 % relative humidity
- Moisture Content (%) (g H2O/g dry solid) ([8]; 33% RH): 0.713%
- Moisture Content (%) (g H2O/g wet solid) ([8]; 33% RH): 0.708%
- Moisture Content (%) (g H2O/g dry solid) ([8]; 35% RH): 0.737%
- Moisture Content (%) (g H2O/g wet solid) ([8]; 35% RH): 0.733%
- Moisture Content (%) (g H2O/g dry solid) ([8]; 37% RH): 0.848%
- Moisture Content (%) (g H2O/g wet solid) ([8]; 37% RH): 0.842%
- Moisture Content (%) (g H2O/g dry solid) ([8]; 39% RH): 1.280%
- Moisture Content (%) (g H2O/g wet solid) ([8]; 39% RH): 1.264%
- Moisture Content (%) (g H2O/g dry solid) ([8]; 41% RH): 1.566%
- Moisture Content (%) (g H2O/g wet solid) ([8]; 41% RH): 1.542%
- Moisture Content (%) (g H2O/g dry solid) ([8]; 43% RH): 4.140%
- Moisture Content (%) (g H2O/g wet solid) ([8]; 43% RH): 3.976%
- Moisture Content (%) (g H2O/g dry solid) ([8]; 45% RH): 5.018%
- Moisture Content (%) (g H2O/g wet solid) ([8]; 45% RH): 4.778%
- Moisture Content (%) (g H2O/g dry solid) ([8]; 47% RH): 14.708%
- Moisture Content (%) (g H2O/g wet solid) ([8]; 47% RH): 12.823%
- rate of moisture absorption ([8]; dry potassium clavulanate exposed to about 50% relative humidity): approximately 1.44 % per hour
- moisture content on a dry weight basis ([8]; exposed to about 35% or less of relative humidity for 96 hr): < 1%
